Measured values taken from patent US20150004134A1, “TREATMENT OF CANCER WITH HETEROCYCLIC INHIBITORS OF GLUTAMINASE” (Calithera Biosciences, Inc., priority 2012, published 2015).
pIC50: −log10 of the molar value. Like-named read-outs stand apart in the source and are kept apart here.

Test system: P493-6 (myc "on") cells
Experiment: Cell Proliferation Assay
Format: cell-based
Method: P493-6 (myc “on”) cells were maintained in growth media (RPMI-1640, 10% FBS, 2 mM glutamine, 100 units/ml Penicillin and 100 μg/ml streptomycin) at 37° C. with 5% CO2. For compound assay, P493-6 cells were plated in 96-well V-bottom plates on the day of compound addition in 50 μl of growth media at a cell density of 200,000 cells/ml (10,000 cells/well). Compounds were serially diluted in 100% DMSO at 200-times the final concentration. Compounds were diluted 100-fold into growth media and then 50 μl of this mixture was added to cell plates making the final concentration of DMSO 0.5%. Cells were incubated with compound for 72 hrs at 37° C. with 5% CO2 and analyzed for antiproliferative effects either by Cell Titer Glo (Promega) or FACS analysis using the Viacount (Millipore) kit on the Guava instrument.

[1] = P493-6, 72 h, read-out: Cell prolif P493 72 h IC50, P493 cells, 72 h
[2] = P493-6, read-out: Cell prolif P493 72 h IC50, P493 cells, 72 h

O=C(Cc1ccccc1)Nc1nnc(CCSCCc2nnc(NC(=O)Cc3ccccc3)s2)s1 [Compound 1, N,N′-(5,5′-(thiobis(ethane-2,1-diyl))bis(1,3,4-thiadiazole-5,2-diyl))bis(2-phenylacetamide)]
pIC50 [1]: 6.33

O=C(Nc1nnc(CCSCCc2nnc(NC(=O)c3ccccc3)s2)s1)c1ccccc1 [Compound 2]
pIC50 [2]: 6.20

COc1ccc(C(=O)Nc2nnc(CCSCCc3nnc(NC(=O)c4ccc(OC)cc4)s3)s2)cc1 [Compound 3]
pIC50 [2]: < 4.30

CC(C)CC(=O)Nc1nnc(CCSCCc2nnc(NC(=O)CC(C)C)s2)s1 [Compound 4]
pIC50 [1]: < 4.30

CC(=O)OCC(=O)Nc1nnc(CCSCCc2nnc(NC(=O)COC(C)=O)s2)s1 [Compound 5]
pIC50 [1]: < 4.30

CN(C(=O)Cc1ccccc1)c1nnc(CCSCCc2nnc(N(C)C(=O)Cc3ccccc3)s2)s1 [Compound 6]
pIC50 [1]: 5.57

CCCC(=O)OCN(C(=O)Cc1ccccc1)c1nnc(CCSCCc2nnc(NC(=O)Cc3ccccc3)s2)s1 [Compound 7]
pIC50 [1]: 6.00

CCCC(=O)OCN(C(=O)Cc1ccccc1)c1nnc(CCSCCc2nnc(N(COC(=O)CCC)C(=O)Cc3ccccc3)s2)s1 [Compound 8]
pIC50 [1]: 5.80

CC(CCc1nnc(NC(=O)Cc2ccccc2)s1)CCc1nnc(NC(=O)Cc2ccccc2)s1 [Compound 9]
pIC50 [1]: < 4.30

CC(C)(CCc1nnc(NC(=O)Cc2ccccc2)s1)CCc1nnc(NC(=O)Cc2ccccc2)s1 [Compound 10]
pIC50 [1]: < 4.30

O=C(Cc1ccccc1)Nc1nnc(CCCCCc2nnc(NC(=O)Cc3ccccc3)s2)s1 [Compound 11]
pIC50 [1]: 6.05

O=C(CN1CCOCC1)Nc1nnc(CCSCCc2nnc(NC(=O)CN3CCOCC3)s2)s1 [Compound 12]
pIC50 [1]: 4.44

CC(=O)Nc1nnc(CCSCCc2nnc(NC(C)=O)s2)s1 [Compound 13]
pIC50 [2]: 4.92

CC(=O)OCC(C(=O)Nc1nnc(CCSCCc2nnc(NC(=O)C(COC(C)=O)c3ccccc3)s2)s1)c1ccccc1 (stereo not shown) [Compound 14]
pIC50 [1]: 5.74

CC(C)(C)C(=O)OCN(C(=O)Cc1ccccc1)c1nnc(CCSCCc2nnc(NC(=O)Cc3ccccc3)s2)s1 [Compound 15]
pIC50 [1]: 5.92

CC(C)(C)C(=O)OCN(C(=O)Cc1ccccc1)c1nnc(CCSCCc2nnc(N(COC(=O)C(C)(C)C)C(=O)Cc3ccccc3)s2)s1 [Compound 16]
pIC50 [1]: 6.10

C=CCCC(=O)Nc1nnc(CCSCCc2nnc(NC(=O)CCC=C)s2)s1 [Compound 18]
pIC50 [1]: 5.09

CC(C(=O)Nc1nnc(CCSCCc2nnc(NC(=O)C(C)c3ccccc3)s2)s1)c1ccccc1 (stereo not shown) [Compound 19]
pIC50 [1]: 5.77

CC(C(=O)Nc1nnc(CCSCCc2nnc(N)s2)s1)c1ccccc1 (stereo not shown) [Compound 20]
pIC50 [1]: 5.59

O=C(Cc1ccccc1)Nc1nnc(CCCCc2nnc(NC(=O)Cc3ccccc3)s2)s1 [Compound 21, N,N′-[5,5′-(butane-1,4-diyl)-bis(1,3,4-thiadiazole-5,2-diyl)]-bis(2-phenylacetamide)]
pIC50 [1]: 7.70

O=C(Nc1nnc(CCSCCc2nnc(NC(=O)[C@@H]3CCCN3C(=O)C(F)(F)F)s2)s1)[C@@H]1CCCN1C(=O)C(F)(F)F [Compound 22]
pIC50 [1]: < 4.30

Nc1nnc(CCSCCc2nnc(NC(=O)[C@@H]3CCCN3C(=O)C(F)(F)F)s2)s1 [Compound 23]
pIC50 [1]: < 4.30

CC(=O)Nc1nnc(CCSCCc2nnc(NC(=O)Cc3ccccc3)s2)s1 [Compound 25]
pIC50 [1]: 5.82

CC(=O)OCC(=O)Nc1nnc(CCSCCc2nnc(NC(=O)Cc3ccccc3)s2)s1 [Compound 26]
pIC50 [1]: 6.15

O=C(Cc1ccccc1)Nc1nnc(CCSCCc2nnc(N(COC(=O)OCCCN3CCOCC3)C(=O)Cc3ccccc3)s2)s1 [Compound 27]
pIC50 [1]: 6.33

O=C(Nc1nnc(CCCCCc2nnc(NC(=O)C(CO)c3ccccc3)s2)s1)C(CO)c1ccccc1 (stereo not shown) [Compound 30]
pIC50 [1]: 5.60

COC(=O)c1cccc(NC(=O)Nc2nnc(CCSCCc3nnc(NC(=O)Nc4cccc(C(=O)OC)c4)s3)s2)c1 [Compound 31]
pIC50 [1]: 5.37

CC(C)[C@H](N)C(=O)Nc1nnc(CCSCCc2nnc(NC(=O)Cc3ccccc3)s2)s1 [Compound 32]
pIC50 [1]: 4.96

CC(C)[C@H](NC(=O)OC(C)(C)C)C(=O)Nc1nnc(CCSCCc2nnc(NC(=O)Cc3ccccc3)s2)s1 [Compound 33]
pIC50 [1]: 5.28

CC(C)[C@H](NC(=O)OC(C)(C)C)C(=O)Nc1nnc(CCSCCc2nnc(NC(=O)[C@@H](NC(=O)OC(C)(C)C)C(C)C)s2)s1 [Compound 34]
pIC50 [1]: < 4.30

O=C(Cc1ccccc1)Nc1nnc(CCSCCc2nnc(NC(=O)[C@@H]3CCCN3C(=O)C(F)(F)F)s2)s1 [Compound 35]
pIC50 [1]: 5.42

O=C(Nc1nnc(CCSCCc2nnc(NC(=O)C3CCc4ccccc4C3)s2)s1)C1CCc2ccccc2C1 (stereo not shown) [Compound 37]
pIC50 [1]: < 4.30

O=C(Nc1nnc(CCSCCc2nnc(NC(=O)C3CC4CCC3C4)s2)s1)C1CC2CCC1C2 (stereo not shown) [Compound 38]
pIC50 [1]: 5.49

O=C(Nc1nnc(CCSCCc2nnc(NC(=O)C3CCCO3)s2)s1)C1CCCO1 (stereo not shown) [Compound 39]
pIC50 [1]: 5.35

O=C(Nc1nnc(CCSCCc2nnc(NC(=O)C3CCCC3)s2)s1)C1CCCC1 [Compound 40]
pIC50 [1]: 6.25

O=C(Nc1nnc(CCSCCc2nnc(NC(=O)C3COc4ccccc4O3)s2)s1)C1COc2ccccc2O1 (stereo not shown) [Compound 41]
pIC50 [1]: 4.48

CC(C)[C@H](NC(=O)OC(C)(C)C)C(=O)Nc1nnc(CCCCc2nnc(NC(=O)[C@@H](NC(=O)OC(C)(C)C)C(C)C)s2)s1 [Compound 42]
pIC50 [1]: < 4.30

O=C(COc1ccccc1)Nc1nnc(CCCCc2nnc(NC(=O)COc3ccccc3)s2)s1 [Compound 43]
pIC50 [1]: < 4.30

CC(CCc1nnc(NC(=O)Cc2ccccc2)s1)Cc1nnc(NC(=O)Cc2ccccc2)s1 (stereo not shown) [Compound 44]
pIC50 [1]: 5.59

O=C(Nc1nnc(CCCCc2nnc(NC(=O)C(F)(F)F)s2)s1)C(F)(F)F [Compound 45]
pIC50 [1]: < 4.30

CC(C)(C)OC(=O)N[C@@H](C(=O)Nc1nnc(CCSCCc2nnc(NC(=O)[C@H](NC(=O)OC(C)(C)C)c3ccccc3)s2)s1)c1ccccc1 [Compound 46]
pIC50 [1]: 4.80

N[C@@H](C(=O)Nc1nnc(CCSCCc2nnc(NC(=O)[C@H](N)c3ccccc3)s2)s1)c1ccccc1 [Compound 47]
pIC50 [1]: 4.46

O=C(CC1CCCCC1)Nc1nnc(CCSCCc2nnc(NC(=O)CC3CCCCC3)s2)s1 [Compound 48]
pIC50 [1]: 6.38

C[C@H](NC(=O)OC(C)(C)C)C(=O)Nc1nnc(CCSCCc2nnc(NC(=O)[C@H](C)NC(=O)OC(C)(C)C)s2)s1 [Compound 49]
pIC50 [1]: 4.77

O=C(Nc1nnc(CCSCCc2nnc(NC(=O)C3Cc4ccccc4O3)s2)s1)C1Cc2ccccc2O1 (stereo not shown) [Compound 50]
pIC50 [1]: 5.09

O=C(Nc1nnc(CCCCc2nnc(NC(=O)C3Cc4ccccc4O3)s2)s1)C1Cc2ccccc2O1 (stereo not shown) [Compound 51]
pIC50 [1]: 5.89

O=C(Nc1nnc(CCCCc2nnc(NC(=O)C3COc4ccccc4O3)s2)s1)C1COc2ccccc2O1 (stereo not shown) [Compound 52]
pIC50 [1]: 4.52

O=C(Nc1nnc(CCCCc2nnc(NC(=O)C3CCCC3)s2)s1)C1CCCC1 [Compound 53]
pIC50 [1]: 4.47

O=C(Nc1nnc(CCCCc2nnc(NC(=O)C3CCCO3)s2)s1)C1CCCO1 (stereo not shown) [Compound 54]
pIC50 [1]: 5.80

O=C(Nc1nnc(CCCCc2nnc(NC(=O)C3CC4CCC3C4)s2)s1)C1CC2CCC1C2 (stereo not shown) [Compound 55]
pIC50 [1]: 5.41

O=C(CC1CCCC1)Nc1nnc(CCSCCc2nnc(NC(=O)CC3CCCC3)s2)s1 [Compound 58]
pIC50 [1]: 5.43

O=C(Cn1cccn1)Nc1nnc(CCCCc2nnc(NC(=O)Cn3cccn3)s2)s1 [Compound 60]
pIC50 [1]: 4.85
